System: PDE4
Assay: Evaluation of PDE4 inhibition (scintillation proximity assay)
Format: biochemical
Settings: inhibition rate relative to control, test compound at 1 μM
Procedure: Test Example 1 Evaluation of PDE4 Inhibition
The PDE4 inhibitory activity was measured by using scintillation proximity assay (SPA) as follows: one in which a sample compound dissolved in dimethyl sulfoxide was diluted 10-fold with a buffer solution for reaction containing 50 mM Tris-HCl, pH 7.5, 8.3 mM MgCl2, 1.7 mM EDTA and 0.3 mg/mL bovine serum albumin (BSA) was added at 10 μL/well to a 96-well assay plate. Further, PDE4 diluted 750-fold with a buffer solution for reaction was added at 50 μL/well, then [2,8-^3H]-Adenosine-3′,5′-cyclic phosphate triethylammonium salt diluted 1000-fold with a buffer solution for reaction was added at 40 μL/well, and the plate was left standing at room temperature for 120 minutes. Thereafter, a suspension of RNA binding YSi-SPA Beads containing 200 mM ZnSO4 was added at 50 μL/well, and the plate was left standing at room temperature for 15 minutes to adsorb the enzyme reaction product onto the Beads. Thereafter, the radioactivity was measured with a liquid scintillation counter for 96-well plates. When one supplemented with only a buffer solution for reaction without adding the enzyme preparation was used as a blank and one supplemented with the enzyme preparation but supplemented with only dimethyl sulfoxide instead of the sample solution was used as a control, the inhibition rate of the test compound relative to the control was calculated according to the following calculation expression: Inhibition rate (%)={1−(Numeric value from the addition of each sample−Blank value)/(Control value−Blank value)}×100

Structure (SMILES) | PDE4 inhibitory activity (1 μM (%)) [%]
C[C@H]1CNCCN1c1nc2cc(Cl)cc(-c3cc(Cl)ccn3)c2o1 [Example 59, (S)-5-Chloro-7-(4-chloropyridin-2-yl)-2-(2-methylpiperazin-1-yl)benzoxazole] | 71
C[C@H]1CNCCN1c1nc2cc(Cl)cc(-c3cccc(F)n3)c2o1 [Example 60, (S)-5-Chloro-7-(6-fluoropyridin-2-yl)-2-(2-methylpiperazin-1-yl)benzoxazole] | 63
C[C@H]1CNCCN1c1nc2cc(Cl)cc(-c3ncccc3F)c2o1 [Example 61, (S)-5-Chloro-7-(3-fluoropyridin-2-yl)-2-(2-methylpiperazin-1-yl)benzoxazole] | 81
C[C@H]1CNCCN1c1nc2cc(Cl)cc(-c3ncc(C#N)s3)c2o1 [Example 62, (S)-5-Chloro-7-(5-cyanothiazol-2-yl)-2-(2-methylpiperazin-1-yl)benzoxazole] | 65
Cc1cnc(-c2cc(Cl)cc3nc(N4CCNC[C@@H]4C)oc23)s1 [Example 63, (S)-5-Chloro-2-(2-methylpiperazin-1-yl)-7-(5-methylthiazol-2-yl)benzoxazole] | 87
C[C@H]1CNCCN1c1nc2cc(Cl)cc(-c3ccsc3Cl)c2o1 [Example 64, (S)-5-Chloro-7-(2-chlorothiophen-3-yl)-2-(2-methylpiperazin-1-yl)benzoxazole] | 73
C[C@H]1CNCCN1c1nc2cc(Cl)cc(-c3ncc(C(N)=O)s3)c2o1 [Example 65, (S)-5-Chloro-7-(5-carbamoylthiazol-2-yl)-2-(2-methylpiperazin-1-yl)benzoxazole] | 83
C[C@H]1CNCCN1c1nc2cc(Cl)cc(-c3ncccc3C#N)c2o1 [Example 66, (S)-5-Chloro-7-(3-cyanopyridin-2-yl)-2-(2-methylpiperazin-1-yl)benzoxazole] | 57
C[C@H]1CNCCN1c1nc2cc(Cl)cc(-c3ccc(F)s3)c2o1 [Example 67, (S)-5-Chloro-7-(5-fluorothiophen-2-yl)-2-(2-methylpiperazin-1-yl)benzoxazole] | 70
Cc1cccnc1-c1cc(Cl)cc2nc(N3CCNC[C@@H]3C)oc12 [Example 68, (S)-5-Chloro-2-(2-methylpiperazin-1-yl)-7-(3-methylpyridin-2-yl)benzoxazole] | 38
Cc1nc(-c2cc(Cl)cc3nc(N4CCNC[C@@H]4C)oc23)cs1 [Example 69, (S)-5-Chloro-2-(2-methylpiperazin-1-yl)-7-(2-methylthiazol-4-yl)benzoxazole] | 65
C[C@H]1CNCCN1c1nc2cc(Cl)cc(Oc3ccccc3)c2o1 [Example 70, (S)-5-Chloro-2-(2-methylpiperazin-1-yl)-7-phenoxybenzoxazole] | 38
C[C@H]1CNCCN1c1nc2cc(Cl)cc(N3CCCC3=O)c2o1 [Example 71, (S)-5-Chloro-2-(2-methylpiperazin-1-yl)-7-(2-oxo-pyrrolidin-1-yl)benzoxazole] | 30
C[C@H]1CNCCN1c1nc2cc(Cl)cc(N3CCOC3=O)c2o1 [Example 72, (S)-5-Chloro-2-(2-methylpiperazin-1-yl)-7-(2-oxo-oxazolidin-3-yl)benzoxazole] | 28
C[C@H]1CNCCN1c1nc2cc(Cl)cc(-c3ccc(F)cn3)c2o1 [Example 73, (S)-5-Chloro-7-(5-fluoropyridin-2-yl)-2-(2-methylpiperazin-1-yl)benzoxazole] | 93
C[C@H]1CNCCN1c1nc2cc(Cl)cc(-c3ncc(Cl)s3)c2o1 [Example 74, (S)-5-Chloro-7-(5-chlorothiazol-2-yl)-2-(2-methylpiperazin-1-yl)benzoxazole] | 83
C[C@H]1CNCCN1c1nc2cc(Cl)cc(Cc3ccccc3)c2o1 [Example 75, (S)-7-Benzyl-5-chloro-2-(2-methylpiperazin-1-yl)benzoxazole] | 45
C[C@H]1CNCCN1c1nc2cc(Cl)cc(-c3ncsc3CO)c2o1 [Example 76, (S)-5-Chloro-7-(5-(hydroxymethyl)thiazol-4-yl)-2-(2-methylpiperazin-1-yl)benzoxazole] | 73
C[C@H]1CNCCN1c1nc2cc(Cl)cc(Oc3nccs3)c2o1 [Example 77, (S)-5-Chloro-2-(2-methylpiperazin-1-yl)-7-(thiazol-2-yloxy)benzoxazole] | 30

Structure (SMILES) | PDE4 inhibitory activity (1 μM (%)) [%]
C[C@H]1CNCCN1c1nc2cc(Cl)cc(-c3ncc([N+](=O)[O-])s3)c2o1 [Example 78, (S)-5-Chloro-2-(2-methylpiperazin-1-yl)-7-(5-nitrothiazol-2-yl)benzoxazole] | 58
COc1cccnc1-c1cc(Cl)cc2nc(N3CCNC[C@@H]3C)oc12 [Example 79, (S)-5-Chloro-7-(3-methoxypyridin-2-yl)-2-(2-methylpiperazin-1-yl)benzoxazole] | 53
C[C@H]1CNCCN1c1nc2cc(Cl)cc(-c3ccc(F)cc3)c2o1 [Example 81, (S)-5-Chloro-7-(4-fluorophenyl)-2-(2-methylpiperazin-1-yl)benzoxazole] | 68
C[C@H]1CNCCN1c1nc2c(C(F)(F)F)c(Cl)cc(-c3ccccn3)c2o1 [Example 82, (S)-5-Chloro-2-(2-methylpiperazin-1-yl)-7-(pyridin-2-yl)-4-(trifluoromethyl)benzoxazole] | 94
C[C@H]1CNCCN1c1nc2c(C(F)(F)F)c(Cl)cc(-n3cccn3)c2o1 [Example 83, (S)-5-Chloro-2-(2-methylpiperazin-1-yl)-7-(1H-pyrazol-1-yl)-4-(trifluoromethyl)benzoxazole] | 92
C[C@H]1CNCCN1c1nc2c(C(F)(F)F)c(Cl)cc(-c3nccs3)c2o1 [Example 84, (S)-5-Chloro-2-(2-methylpiperazin-1-yl)-7-(thiazol-2-yl)-4-(trifluoromethyl)benzoxazole] | 95
C[C@H]1CNCCN1c1nc2cc(Cl)c(C(F)(F)F)c(-c3ccccn3)c2o1 [Example 85, (S)-5-Chloro-2-(2-methylpiperazin-1-yl)-7-(pyridin-2-yl)-6-(trifluoromethyl)benzoxazole] | 26
C[C@H]1CNCCN1c1nc2c(OC(F)(F)F)c(Cl)cc(-c3ccccn3)c2o1 [Example 86, (S)-5-Chloro-2-(2-methylpiperazin-1-yl)-7-(pyridin-2-yl)-4-(trifluoromethoxy)benzoxazole] | 91
C[C@H]1CNCCN1c1nc2c(OC(F)(F)F)c(Cl)cc(-c3nccs3)c2o1 [Example 87, (S)-5-Chloro-2-(2-methylpiperazin-1-yl)-7-(thiazol-2-yl)-4-(trifluoromethoxy)benzoxazole] | 96
C[C@H]1CNCCN1c1nc2c(OC(F)(F)F)c(Cl)cc(-n3cccn3)c2o1 [Example 88, (S)-5-Chloro-2-(2-methylpiperazin-1-yl)-7-(1H-pyrazol-1-yl)-4-(trifluoromethoxy)benzoxazole] | 95
C[C@H]1CNCCN1c1nc2c(F)c(F)cc(-c3ccccn3)c2o1 [Example 89, (S)-4,5-Difluoro-2-(2-methylpiperazin-1-yl)-7-(pyridin-2-yl)benzoxazole] | 88
C[C@H]1CNCCN1c1nc2c(F)c(F)cc(-c3nccs3)c2o1 [Example 90, (S)-4,5-Difluoro-2-(2-methylpiperazin-1-yl)-7-(thiazol-2-yl)benzoxazole] | 96
C[C@H]1CNCCN1c1nc2c(F)c(F)cc(-n3cccn3)c2o1 [Example 91, (S)-4,5-Difluoro-2-(2-methylpiperazin-1-yl)-7-(1H-pyrazol-1-yl)benzoxazole] | 89
C[C@H]1CNCCN1c1nc2cc(Cl)c(F)c(-c3ccccn3)c2o1 [Example 92, (S)-5-Chloro-6-fluoro-2-(2-methylpiperazin-1-yl)-7-(pyridin-2-yl)benzoxazole] | 71
C[C@H]1CNCCN1c1nc2cc(Cl)c(F)c(-c3nccs3)c2o1 [Example 93, (S)-5-Chloro-6-fluoro-2-(2-methylpiperazin-1-yl)-7-(thiazol-2-yl)benzoxazole] | 95
C[C@H]1CNCCN1c1nc2cc(Cl)c(F)c(-n3cccn3)c2o1 [Example 94, (S)-5-Chloro-6-fluoro-2-(2-methylpiperazin-1-yl)-7-(1H-pyrazol-1-yl)benzoxazole] | 62
CCCc1cc(Cl)cc2nc(N3CCNC[C@@H]3C)oc12 [Example 95, (S)-5-Chloro-2-(2-methylpiperazin-1-yl)-7-n-propylbenzoxazole] | 71
C[C@H]1CNCCN1c1nc2cc(Cl)cc(C(=O)N(C)C)c2o1 [Example 96, (S)-5-Chloro-7-dimethylaminocarbonyl-2-(2-methylpiperazin-1-yl)benzoxazole] | <10
CCN(CC)C(=O)c1cc(Cl)cc2nc(N3CCNC[C@@H]3C)oc12 [Example 97, (S)-5-Chloro-7-diethylaminocarbonyl-2-(2-methylpiperazin-1-yl)benzoxazole] | 10
